# Results from US12728181B2, “Solution blow spun polymer constructs, compositions and methods of fabrications and uses relating thereto” (University of Maryland, College Park, priority 2019, dated 2026).
# What was measured:
# fibroblasts = settings: cited from earlier work
# keratinocytes = settings: cited from earlier work
# [1] = test system: small model bacterial inoculation; settings: cited from earlier work
# mouse = settings: in vivo, ip
# Excerpt: To determine the potential immune response to the fast-degrading components of the PSTA, we employed an intraperitoneal space implantation mouse model used to evaluate fibrosis (Doloff, J. C. et al. (2017) Colony Stimulating Factor-1 Receptor Is a Central Component of the Foreign Body Response to Biomaterial Implants in Rodents and Non-Human Primates, Nat. Mater. 16(6):671).
Compound,24 hour cytotoxic limit (FCC) (fibroblasts),24 hour cytotoxic limit (KCC) (keratinocytes),minimum inhibitory concentration (MIC) ([1]; inoculation of the same size),minimum bactericidal concentration (MBC) ([1]; small model bacterial inoculation),fibrotic adhesions to the fat pads (mouse)
[Ag+] [Ag^+],approximately 50 μM,500 µM,about 5 μM,approximately 20 μM,–
poly(lactide-co-caprolactone) [LMW PLCL],–,–,–,–,no adhesions to the fat pad
